Test results reported in patent publication US20190297887A1, “BICYCLIC COMPOUNDS AS PESTICIDES” (Bayer CropScience Aktiengesellschaft, priority 2016, published 2019).
Like-named read-outs stand apart in the source and are kept apart here. Blank lines part the entries; values can stand above or below the compound they belong to.

Tests used:
[1] = system: green peach aphid (Myzus persicae); assay: Myzus persicae - spray test; type: in vivo; details: foliar, application rate 500 g/ha, after 5-6 days, sprayed Chinese cabbage leaf discs, read-out: efficacy in % (aphids killed)
Description: Myzus persicae—Spray Test Solvent: 78 parts by weight of acetone • • 1.5 parts by weight of dimethylformamide Emulsifier: alkylaryl polyglycol ether To produce a suitable active ingredient formulation, 1 part by weight of active ingredient is dissolved with the specified parts by weight of solvent and made up to the desired concentration with water containing an emulsifier concentration of 1000 ppm. To produce further test concentrations, the formulation is diluted with emulsifier-containing water. Discs of Chinese cabbage leaves (Brassica pekinensis) infested by all stages of the green peach aphid (Myzus persicae) are sprayed with an active ingredient formulation of the desired concentration. After 5-6 days, the efficacy in % is determined. 100% means that all the aphids have been killed; 0% means that no aphids have been killed.

[2] = log P determination by HPLC on reversed-phase columns (OECD Guideline 117); type: physicochemical; details: reversed-phase (C18) HPLC column
Description: The log P values were determined in accordance with OECD Guideline 117 (EC Directive 92/69/EEC) by HPLC (high-performance liquid chromatography) using reversed-phase (RP) columns (C18), by the following methods: [a] The LC-MS determination in the acidic range is carried out at pH 2.7 with 0.1% aqueous formic acid and acetonitrile (contains 0.1% formic acid) as eluents; linear gradient from 10% acetonitrile to 95% acetonitrile. [b] LC-MS determination in the neutral range is carried out at pH 7.8 with 0.001 molar aqueous ammonium hydrogencarbonate solution and acetonitrile as eluents; linear gradient from 10% acetonitrile to 95% acetonitrile. Calibration is effected using unbranched alkan-2-ones (having 3 to 16 carbon atoms) with known log P values (log P values determined on the basis of the retention times by linear interpolation between two successive alkanones).

[3] = system: green peach aphids (Myzus persicae); assay: Myzus persicae - oral test; type: in vivo; details: 120 h, application rate 4 ppm, after 5 days, oral uptake from microtitre plate, read-out: efficacy in % (aphids killed)
Description: Myzus persicae—Oral Test Solvent: 100 parts by weight of acetone To produce a suitable active ingredient formulation, 1 part by weight of active ingredient is dissolved with the stated parts by weight of solvent and made up to the desired concentration with water. 50 μl of the active ingredient formulation are transferred into microtitre plates and made up to a final volume of 200 μl with 150 μl of IPL41 insect medium (33%+15% sugar). Subsequently, the plates are sealed with parafilm, which a mixed population of green peach aphids (Myzus persicae) within a second microtitre plate is able to puncture and imbibe the solution. After 5 days, the efficacy in % is determined. 100% means that all the aphids have been killed; 0% means that no aphids have been killed.

[4] = system: southern root-knot nematode (Meloidogyne incognita); assay: Meloidogyne incognita test; type: in vivo; details: application rate 20 ppm; after 14 days; lettuce in sand; 100% = no galls
Description: Meloidogyne incognita Test Solvent: 125.0 parts by weight of acetone To produce a suitable active ingredient formulation, 1 part by weight of active ingredient is mixed with the stated amount of solvent and the concentrate is diluted to the desired concentration with water. Vessels are filled with sand, active ingredient solution, an egg/larvae suspension of the southern root-knot nematode (Meloidogyne incognita) and lettuce seeds. The lettuce seeds germinate and the plants develop. The galls develop on the roots. After 14 days, the nematicidal efficacy in % is determined by the formation of galls. 100% means that no galls were found; 0% means that the number of galls on the treated plants corresponds to the untreated control.

[5] = system: larvae of the mustard beetle (Phaedon cochleariae); assay: Phaedon cochleariae - spray test; type: in vivo; details: application rate 500 g/ha; after 7 days; sprayed Chinese cabbage leaf discs
Description: Phaedon cochleariae—Spray Test
Solvent: 78.0 parts by weight of acetone • • 1.5 parts by weight of dimethylformamide
Emulsifier: alkylaryl polyglycol ether
To produce a suitable active ingredient formulation, 1 part by weight of active ingredient is dissolved with the specified parts by weight of solvent and made up to the desired concentration with water containing an emulsifier concentration of 1000 ppm. To produce further test concentrations, the formulation is diluted with emulsifier-containing water.
Discs of Chinese cabbage leaves (Brassica pekinensis) are sprayed with an active compound formulation of the desired concentration and, after drying, populated with larvae of the mustard beetle (Phaedon cochleariae).
After 7 days, the efficacy in % is determined. 100% means that all the beetle larvae have been killed; 0% means that no beetle larvae have been killed.

[6] = acidic range, pH 2.7, 0.1% aqueous formic acid/acetonitrile, read-out: log P(HCOOH)
[7] = neutral range, pH 7.8, 0.001 molar aqueous ammonium hydrogencarbonate/acetonitrile, read-out: log P(neutral)

- chromatographic logP [2, 6]: 1.24
- chromatographic logP [2, 7]: 1.31
Compound: Cn1c(=O)n(C)n(-c2ccc3nn(-c4cccnc4)cc3c2)c1=O [Example 1, 1,4-Dimethyl-2-[2-(pyridin-3-yl)-2H-indazol-5-yl]-1,2,4-triazolidine-3,5-dione]
- pest or weed control at 500 g/ha [1]: 90%
- pest or weed control at 4 ppm [3]: 100%
- nematicidal efficacy in % (formation of galls) [4]: 90%

- chromatographic logP [2, 6]: 1.38
- chromatographic logP [2, 7]: 1.47
Compound: Cn1c(=O)cnn(-c2ccc3nn(-c4cccnc4)cc3c2)c1=O [Example 2, 4-Methyl-2-[2-(pyridin-3-yl)-2H-indazol-5-yl]-1,2,4-triazine-3,5(2H,4H)-dione]
- pest or weed control at 500 g/ha [1]: 90%
- pest or weed control at 4 ppm [3]: 100%

Compound: Cn1c(=O)n(C2CC2)c(=O)n1-c1ccc2nn(-c3cccnc3)cc2c1 [Example 3]
- pest or weed control at 500 g/ha [1]: 100%
- pest or weed control at 4 ppm [3]: 100%

Compound: Cn1c(=O)n(-c2ccccc2)c(=O)n1-c1ccc2nn(-c3cccnc3)cc2c1 [Example 4]
- pest or weed control at 500 g/ha [1]: 90%
- efficacy in % (beetle larvae killed) [5]: 83%
- pest or weed control at 4 ppm [3]: 100%

Compound: CCn1c(=O)n(C)n(-c2ccc3nn(-c4cccnc4)cc3c2)c1=O [Example 5]
- pest or weed control at 500 g/ha [1]: 90%
- pest or weed control at 4 ppm [3]: 100%

Compound: CSCCn1c(=O)n(C)n(-c2ccc3nn(-c4cccnc4)cc3c2)c1=O [Example 6]
- pest or weed control at 500 g/ha [1]: 100%
- pest or weed control at 4 ppm [3]: 90%

Compound: Cn1c(=O)n(CC2CC2)c(=O)n1-c1ccc2nn(-c3cccnc3)cc2c1 [Example 7]
- pest or weed control at 500 g/ha [1]: 90%
- pest or weed control at 4 ppm [3]: 100%

Compound: Cn1c(=O)n(Cc2ccccc2)c(=O)n1-c1ccc2nn(-c3cccnc3)cc2c1 [Example 8]
- pest or weed control at 500 g/ha [1]: 100%
- pest or weed control at 4 ppm [3]: 100%

Compound: Cn1c(=O)n(CC(F)(F)F)c(=O)n1-c1ccc2nn(-c3cccnc3)cc2c1 [Example 9]
- pest or weed control at 500 g/ha [1]: 90%
- pest or weed control at 4 ppm [3]: 100%

Compound: Cn1c(=O)n(CC(F)(F)F)n(-c2ccc3nn(-c4cccnc4)cc3c2)c1=O [Example 10]
- pest or weed control at 4 ppm [3]: 100%

Compound: Cn1c(=O)n(CC[S+](C)[O-])c(=O)n1-c1ccc2nn(-c3cccnc3)cc2c1 (stereo not shown) [Example 11]
- pest or weed control at 500 g/ha [1]: 90%
- pest or weed control at 4 ppm [3]: 100%

Compound: COCCn1c(=O)n(C)n(-c2ccc3nn(-c4cccnc4)cc3c2)c1=O [Example 12]
- pest or weed control at 500 g/ha [1]: 90%
- pest or weed control at 4 ppm [3]: 100%

Compound: CC(C)n1c(=O)n(C)n(-c2ccc3nn(-c4cccnc4)cc3c2)c1=O [Example 13]
- pest or weed control at 4 ppm [3]: 90%

Compound: Cn1c(=O)n(CC(F)F)c(=O)n1-c1ccc2nn(-c3cccnc3)cc2c1 [Example 14]
- pest or weed control at 500 g/ha [1]: 90%
- pest or weed control at 4 ppm [3]: 100%

Compound: Cn1c(=O)n(Cc2ccc(Cl)cc2)c(=O)n1-c1ccc2nn(-c3cccnc3)cc2c1 [Example 15]
- pest or weed control at 4 ppm [3]: 100%

Compound: Cn1c(=O)n(Cc2ccccc2Cl)c(=O)n1-c1ccc2nn(-c3cccnc3)cc2c1 [Example 16]
- pest or weed control at 4 ppm [3]: 90%

Compound: Cn1c(=O)n(Cc2cccc(Cl)c2)c(=O)n1-c1ccc2nn(-c3cccnc3)cc2c1 [Example 17]
- pest or weed control at 4 ppm [3]: 100%

Compound: CCn1c(=O)n(C)n(-c2cnc3nn(-c4cccnc4)cc3c2)c1=O [Example 18]
- pest or weed control at 500 g/ha [1]: 100%
- pest or weed control at 4 ppm [3]: 100%

Compound: Cn1c(=O)n(C)n(-c2cnc3nn(-c4cccnc4)cc3c2)c1=O [Example 19]
- pest or weed control at 500 g/ha [1]: 100%
- pest or weed control at 4 ppm [3]: 90%

Compound: Cn1c(=O)n(C2CC2)c(=O)n1-c1cnc2nn(-c3cccnc3)cc2c1 [Example 20]
- pest or weed control at 500 g/ha [1]: 90%
- pest or weed control at 4 ppm [3]: 100%

Compound: Cn1c(=O)n(CC2CC2)c(=O)n1-c1cnc2nn(-c3cccnc3)cc2c1 [Example 21]
- pest or weed control at 500 g/ha [1]: 100%
- pest or weed control at 4 ppm [3]: 100%

Compound: CC(C)n1c(=O)n(C)n(-c2cnc3nn(-c4cccnc4)cc3c2)c1=O [Example 22]
- pest or weed control at 4 ppm [3]: 100%

Compound: Cn1c(=O)n(Cc2ccc(Cl)nc2)c(=O)n1-c1ccc2nn(-c3cccnc3)cc2c1 [Example 23]
- pest or weed control at 500 g/ha [1]: 100%
- pest or weed control at 4 ppm [3]: 100%

Compound: O=c1cnn(-c2ccc3nn(-c4cccnc4)cc3c2)c(=O)n1CC(F)(F)F [Example 24]
- pest or weed control at 4 ppm [3]: 100%

Compound: CCn1c(=O)cnn(-c2ccc3nn(-c4cccnc4)cc3c2)c1=O [Example 25]
- pest or weed control at 500 g/ha [1]: 100%
- efficacy in % (beetle larvae killed) [5]: 83%
- pest or weed control at 4 ppm [3]: 100%

Compound: O=c1cnn(-c2ccc3nn(-c4cccnc4)cc3c2)c(=O)n1CC1CC1 [Example 26]
- pest or weed control at 500 g/ha [1]: 90%
- pest or weed control at 4 ppm [3]: 100%

Compound: O=c1cnn(-c2ccc3nn(-c4cccnc4)cc3c2)c(=O)n1Cc1ccccc1 [Example 27]
- pest or weed control at 500 g/ha [1]: 90%
- pest or weed control at 4 ppm [3]: 100%

Compound: O=c1cnn(-c2ccc3nn(-c4cccnc4)cc3c2)c(=O)n1-c1ccccc1 [Example 28]
- pest or weed control at 4 ppm [3]: 90%
